# Data as given in US8263603B2, “N3-substituted-N1-sulfonyl-5-fluoropyrimidinone derivatives” (Dow AgroSciences, LLC, priority 2010, dated 2012).
# What was measured:
# [1] = test system: Mycosphaerella graminicola; anamorph: Septoria tritici; Bayer code SEPTTR; assay: Fungicidal activity against leaf blotch of wheat, three-day curative (3 DC); format: in vivo; conditions: Zymoseptoria tritici, 72 h, wheat plants (variety Yuma), rating of % disease control
# Procedure: (§1) Evaluation of Fungicidal Activity: Leaf Blotch of Wheat (Mycosphaerella graminicola; anamorph: Septoria tritici; Bayer code […]) Wheat plants (variety Yuma) were grown from seed in a greenhouse in 50% mineral soil/50% soil-less Metro mix until the first leaf was fully emerged, with 7-10 seedlings per pot. These plants were inoculated with an aqueous spore suspension of Septoria tritici either prior to or after fungicide treatments. After inoculation the plants were kept in 100% relative humidity (one day in a dark dew chamber followed by two days in a lighted dew chamber) to permit spores to germinate and infect the leaf. The plants were then transferred to a greenhouse for disease to develop. The following table presents the activity of typical compounds of the present disclosure when evaluated in these experiments. The effectiveness of the test compounds in controlling disease was determined by assessing the severity of disease on treated plants, and then converting the severity to percent control based on the level of disease on untreated, inoculated plants. • In each case of Table II the rating scale is as follows: […]
# [2] = test system: Mycosphaerella graminicola; anamorph: Septoria tritici; Bayer code SEPTTR; assay: Fungicidal activity against leaf blotch of wheat, one-day protectant (1 DP); format: in vivo; conditions: Zymoseptoria tritici, 24 h, wheat plants (variety Yuma), rating of % disease control
# Procedure: as §1
smiles,measurement,setting,value
"CCn1c(=N)c(F)cn(S(=O)(=O)c2ccccc2)c1=O [Compound 6, 1-benzenesulfonyl-5-fluoro-4-imino-3-ethyl-3,4-dihydro-1H-pyrimidin-2-one]",pest or weed control at 100 ppm,[1],0 to 25%
same,melting point,,163 to 166 °C
same,pest or weed control at 100 ppm,[2],0 to 25%
Cn1c(=N)c(F)cn(S(=O)(=O)c2ccc(Cl)cc2)c1=O [Compound 4],pest or weed control at 100 ppm,[1],76 to 100%
same,melting point,,147 to 150 °C
same,pest or weed control at 100 ppm,[2],76 to 100%
"Cn1c(=N)c(F)cn(S(=O)(=O)c2ccccc2)c1=O [Compound 1, 1-Benzenesulfonyl-5-fluoro-4-imino-3-methyl-3,4-dihydro-1H-pyrimidin-2-one]",pest or weed control at 100 ppm,[1],76 to 100%
same,melting point,,144 °C
same,pest or weed control at 100 ppm,[2],76 to 100%
CCn1c(=N)c(F)cn(S(=O)(=O)c2c(Cl)cccc2Cl)c1=O [Compound 9],pest or weed control at 100 ppm,[1],76 to 100%
same,melting point,,182 to 185 °C
same,pest or weed control at 100 ppm,[2],0 to 25%
Cn1c(=N)c(F)cn(S(=O)(=O)c2cccs2)c1=O [Compound 2],pest or weed control at 100 ppm,[1],76 to 100%
same,melting point,,136 to 139 °C
same,pest or weed control at 100 ppm,[2],76 to 100%
COc1ccc(S(=O)(=O)n2cc(F)c(=N)n(C)c2=O)cc1 [Compound 3],pest or weed control at 100 ppm,[1],76 to 100%
same,melting point,,158 to 162 °C
same,pest or weed control at 100 ppm,[2],76 to 100%
CCn1c(=N)c(F)cn(S(=O)(=O)c2ccc(OC)cc2)c1=O [Compound 8],pest or weed control at 100 ppm,[1],51 to 75%
same,melting point,,107 to 111 °C
same,pest or weed control at 100 ppm,[2],0 to 25%
"COc1ccc(S(=O)(=O)n2cc(F)c(=N)n(Cc3ccccc3)c2=O)cc1 [Compound 5, 3-benzyl-5-fluoro-4-imino-1-(4-methoxyphenylsulfonyl)-3,4-dihydropyrimidin-2(1H)-one]",pest or weed control at 100 ppm,[1],0 to 25%
same,pest or weed control at 100 ppm,[2],0 to 25%
CCn1c(=N)c(F)cn(S(=O)(=O)c2ccc(Cl)cc2)c1=O [Compound 7],pest or weed control at 100 ppm,[1],76 to 100%
same,melting point,,165 to 168 °C
same,pest or weed control at 100 ppm,[2],51 to 75%
